In general, inhibition refers to the relative decrease from the control value, in per cent.

These results are taken from PubChem BioAssay AID463149 (The Scripps Research Institute Molecular Screening Center, 2010).

Holding throughout (test): PME-1 inhibition and serine hydrolase selectivity by ABPP – cell lysate, gel-based competitive ABPP, fluorescence, powder samples, selectivity assay, late-stage follow-up (AID 463149);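 also: 0% = DMSO-treated band intensity and 100% = blank gel background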
One assay has as its system Anti-Target CES. As to conditions: HeLa soluble proteome, FP-Rh fluorescence, measured here: Anti-Target CES, stronger effect = higher value.
In assay [1] the target is Acylamino-acid-releasing enzyme (Homo sapiens) (UniProt P13798). As to conditions: HeLa soluble proteome, FP-Rh fluorescence, measured here: Anti-Target APEH, stronger effect = higher value.
Assay [2] has as its target Fatty acid synthase (Homo sapiens) (UniProt P49327). As to conditions: HeLa soluble proteome, FP-Rh fluorescence, measured here: Anti-Target FAS, stronger effect = higher value.
Assay [3] has as its target Protein phosphatase methylesterase 1 (Homo sapiens) (UniProt Q9Y570). As to conditions: HeLa soluble proteome, FP-Rh fluorescence, stronger effect = higher value.
In another assay the test system is Anti-Target ABHD10. As to conditions: HeLa soluble proteome, FP-Rh fluorescence, stronger effect = higher value.
For another assay, the system named is Anti-Target PREP. As to conditions: HeLa soluble proteome, FP-Rh fluorescence, measured here: Anti-Target PREP, stronger effect = higher value.
The mark [4] stands for this setting: measured here: Anti-Target ABHD10, at 1 µM.
[5] abbreviates: measured here: Anti-Target ABHD10, at 20 µM.

Sequence of Acylamino-acid-releasing enzyme (Homo sapiens) (P13798 whole entry, looked up): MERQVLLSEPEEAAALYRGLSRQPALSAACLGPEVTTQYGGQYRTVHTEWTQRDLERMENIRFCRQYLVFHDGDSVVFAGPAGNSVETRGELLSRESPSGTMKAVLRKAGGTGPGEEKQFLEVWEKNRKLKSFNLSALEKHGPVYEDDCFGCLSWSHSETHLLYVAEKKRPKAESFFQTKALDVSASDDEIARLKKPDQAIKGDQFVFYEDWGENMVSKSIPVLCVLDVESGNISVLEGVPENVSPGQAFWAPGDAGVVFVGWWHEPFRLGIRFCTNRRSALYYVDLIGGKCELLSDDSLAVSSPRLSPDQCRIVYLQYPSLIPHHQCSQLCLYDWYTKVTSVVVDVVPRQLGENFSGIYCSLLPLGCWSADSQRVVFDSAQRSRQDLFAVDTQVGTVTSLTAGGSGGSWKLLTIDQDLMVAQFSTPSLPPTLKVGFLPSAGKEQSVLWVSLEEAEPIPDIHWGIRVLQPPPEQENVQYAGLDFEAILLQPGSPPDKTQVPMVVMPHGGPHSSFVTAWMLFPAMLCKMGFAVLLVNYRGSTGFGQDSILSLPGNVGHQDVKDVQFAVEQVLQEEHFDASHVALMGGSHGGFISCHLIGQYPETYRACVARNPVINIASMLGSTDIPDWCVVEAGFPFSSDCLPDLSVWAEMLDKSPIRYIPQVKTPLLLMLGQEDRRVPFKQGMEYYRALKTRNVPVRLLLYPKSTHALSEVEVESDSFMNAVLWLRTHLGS
Sequence of Protein phosphatase methylesterase 1 (Homo sapiens) (Q9Y570 whole entry, looked up): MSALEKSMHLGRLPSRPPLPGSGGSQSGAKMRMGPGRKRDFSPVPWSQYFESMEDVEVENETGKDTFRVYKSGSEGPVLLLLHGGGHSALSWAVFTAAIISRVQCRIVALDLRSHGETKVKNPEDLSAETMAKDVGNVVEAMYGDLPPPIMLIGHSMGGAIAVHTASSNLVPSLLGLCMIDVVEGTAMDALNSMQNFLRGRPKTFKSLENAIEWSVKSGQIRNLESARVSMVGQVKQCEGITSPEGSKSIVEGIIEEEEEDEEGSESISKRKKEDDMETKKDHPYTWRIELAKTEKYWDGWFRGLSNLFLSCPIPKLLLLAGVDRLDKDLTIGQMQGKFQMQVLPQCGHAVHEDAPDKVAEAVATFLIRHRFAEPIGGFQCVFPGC
Sequence of Fatty acid synthase (Homo sapiens) (P49327 whole entry, looked up): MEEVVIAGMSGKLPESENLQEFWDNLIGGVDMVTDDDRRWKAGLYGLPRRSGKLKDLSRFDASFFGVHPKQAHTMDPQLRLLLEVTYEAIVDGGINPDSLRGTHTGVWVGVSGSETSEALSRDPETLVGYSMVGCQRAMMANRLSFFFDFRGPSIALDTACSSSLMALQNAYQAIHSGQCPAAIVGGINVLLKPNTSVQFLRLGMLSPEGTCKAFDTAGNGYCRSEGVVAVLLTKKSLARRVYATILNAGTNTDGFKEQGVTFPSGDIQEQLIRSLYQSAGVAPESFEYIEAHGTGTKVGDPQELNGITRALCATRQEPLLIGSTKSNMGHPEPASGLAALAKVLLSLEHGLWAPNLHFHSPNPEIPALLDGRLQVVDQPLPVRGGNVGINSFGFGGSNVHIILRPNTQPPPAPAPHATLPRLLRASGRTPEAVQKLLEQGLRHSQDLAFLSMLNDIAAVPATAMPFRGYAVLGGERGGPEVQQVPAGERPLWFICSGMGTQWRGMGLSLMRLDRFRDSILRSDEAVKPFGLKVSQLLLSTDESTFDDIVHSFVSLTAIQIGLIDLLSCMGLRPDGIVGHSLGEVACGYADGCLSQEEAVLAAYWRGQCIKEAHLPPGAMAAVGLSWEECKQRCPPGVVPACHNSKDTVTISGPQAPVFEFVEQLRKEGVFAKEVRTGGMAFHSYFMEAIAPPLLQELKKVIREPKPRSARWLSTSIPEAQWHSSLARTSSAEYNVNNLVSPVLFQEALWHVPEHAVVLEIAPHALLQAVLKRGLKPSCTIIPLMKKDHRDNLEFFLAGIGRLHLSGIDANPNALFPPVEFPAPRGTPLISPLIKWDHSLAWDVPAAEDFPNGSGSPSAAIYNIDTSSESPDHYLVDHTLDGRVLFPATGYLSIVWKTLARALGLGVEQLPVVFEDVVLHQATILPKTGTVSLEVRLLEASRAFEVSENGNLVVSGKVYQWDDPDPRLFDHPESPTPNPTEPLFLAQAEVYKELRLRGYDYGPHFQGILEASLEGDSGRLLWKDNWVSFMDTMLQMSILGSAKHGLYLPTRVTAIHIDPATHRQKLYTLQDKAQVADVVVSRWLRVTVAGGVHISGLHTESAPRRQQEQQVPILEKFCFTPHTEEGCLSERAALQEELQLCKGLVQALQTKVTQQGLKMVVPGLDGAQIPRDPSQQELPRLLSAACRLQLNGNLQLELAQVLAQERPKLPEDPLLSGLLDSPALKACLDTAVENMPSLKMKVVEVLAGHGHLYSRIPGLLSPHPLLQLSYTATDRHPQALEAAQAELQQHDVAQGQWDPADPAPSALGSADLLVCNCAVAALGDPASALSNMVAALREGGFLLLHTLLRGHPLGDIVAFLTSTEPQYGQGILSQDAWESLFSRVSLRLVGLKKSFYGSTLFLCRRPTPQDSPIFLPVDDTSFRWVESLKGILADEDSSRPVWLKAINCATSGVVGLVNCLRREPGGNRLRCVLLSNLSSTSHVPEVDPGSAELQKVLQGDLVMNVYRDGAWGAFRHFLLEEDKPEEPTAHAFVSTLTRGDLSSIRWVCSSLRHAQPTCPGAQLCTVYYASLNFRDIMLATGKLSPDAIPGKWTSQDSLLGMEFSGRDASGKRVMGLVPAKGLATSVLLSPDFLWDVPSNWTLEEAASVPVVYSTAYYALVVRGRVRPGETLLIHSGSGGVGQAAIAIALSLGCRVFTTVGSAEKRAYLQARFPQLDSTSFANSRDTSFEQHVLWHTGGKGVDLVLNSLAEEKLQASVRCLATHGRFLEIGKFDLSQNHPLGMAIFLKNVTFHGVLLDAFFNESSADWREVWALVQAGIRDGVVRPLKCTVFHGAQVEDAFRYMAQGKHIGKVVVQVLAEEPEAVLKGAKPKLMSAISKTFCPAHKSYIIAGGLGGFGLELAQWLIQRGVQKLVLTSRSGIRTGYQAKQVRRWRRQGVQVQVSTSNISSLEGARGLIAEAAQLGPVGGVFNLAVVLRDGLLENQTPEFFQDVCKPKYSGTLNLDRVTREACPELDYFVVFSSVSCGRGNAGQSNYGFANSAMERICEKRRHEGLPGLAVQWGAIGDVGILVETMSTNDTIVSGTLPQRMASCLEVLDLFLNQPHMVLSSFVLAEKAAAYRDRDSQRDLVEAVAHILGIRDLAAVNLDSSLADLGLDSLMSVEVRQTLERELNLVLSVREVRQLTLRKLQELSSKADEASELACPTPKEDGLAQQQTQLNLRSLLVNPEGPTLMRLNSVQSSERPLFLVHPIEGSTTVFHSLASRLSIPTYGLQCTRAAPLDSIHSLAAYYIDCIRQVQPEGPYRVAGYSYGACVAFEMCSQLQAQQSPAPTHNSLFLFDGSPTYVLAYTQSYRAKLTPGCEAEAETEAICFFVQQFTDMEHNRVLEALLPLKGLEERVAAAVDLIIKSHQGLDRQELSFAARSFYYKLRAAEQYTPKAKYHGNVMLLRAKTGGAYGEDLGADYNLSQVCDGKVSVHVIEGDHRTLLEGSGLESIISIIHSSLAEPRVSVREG

With `COC(=O)N1C(=O)[C@](c2ccccc2)(C2CCCC2)N1C(=O)OC`, the inhibition in the assay with Anti-Target CES (at 1 µM) was 0%; in the assay with Anti-Target CES (at 20 µM), 0%; in assay [1] (at 1 µM), 0%; in assay [1] (at 20 µM) it was over 50%; in assay [2] (at 1 µM) it was 0%; in assay [2] (at 20 µM), over 50%. In addition, the inhibition was found to be 100% in assay [3] (PME-1, at 0.1 µM); 100% in assay [3] (PME-1, inhibition, at 1 µM); 100% in assay [3] (PME-1, inhibition, at 20 µM); 0% in the assay with Anti-Target ABHD10 (setting [4]); 0% in the assay on Anti-Target ABHD10 (setting [5]); 0% with Anti-Target PREP (at 1 µM). For the same compound, the inhibition in the assay on Anti-Target PREP (at 20 µM) worked out at 0%.

Regarding `CC[C@@]1(c2cccc(C)c2)C(=O)N(C(=O)OC)N1C(=O)OC`, the inhibition is over 50% in the assay on Anti-Target CES (at 1 µM); over 50% in the assay on Anti-Target CES (at 20 µM); 0% in assay [1] (at 1 µM); 0% in assay [1] (at 20 µM); 0% in assay [2] (at 1 µM); over 50% in assay [2] (at 20 µM). Moreover, the inhibition in assay [3] (PME-1, inhibition, at 1 µM) is 0%; in assay [3] (PME-1, inhibition, at 20 µM), 100%; in the assay on Anti-Target ABHD10 (setting [4]), 0%; in the assay with Anti-Target ABHD10 (setting [5]), 50%; in the assay on Anti-Target PREP (at 1 µM), 0%; in the assay on Anti-Target PREP (at 20 µM) it was over 50%.

As to `CC[C@@]1(c2ccccc2)C(=O)N(C(=O)OC)N1C(=O)OC`, the inhibition was 0% in the assay on Anti-Target CES (at 1 µM); over 50% in the assay on Anti-Target CES (at 20 µM); 0% in assay [1] (at 1 µM); 0% in assay [1] (at 20 µM); 0% in assay [2] (at 1 µM); 0% in assay [2] (at 20 µM). Also, the inhibition was 0% in assay [3] (PME-1, inhibition, at 1 µM); 100% in assay [3] (PME-1, inhibition, at 20 µM); 0% in the assay with Anti-Target ABHD10 (setting [4]); 50% with Anti-Target ABHD10 (setting [5]); 0% in the assay on Anti-Target PREP (at 1 µM); over 50% with Anti-Target PREP (at 20 µM).

Consider `COC(=O)N1C(=O)[C@](c2ccccc2)(C2CCCCC2)N1C(=O)OC`, for which the inhibition in the assay with Anti-Target CES (at 1 µM) was 0%; with Anti-Target CES (at 20 µM), 0%; in assay [1] (at 1 µM) it was 0%; in assay [1] (at 20 µM), 0%; in assay [2] (at 1 µM) it was 0%; in assay [2] (at 20 µM), over 50%. For the same compound, the inhibition in assay [3] (PME-1, at 0.1 µM) stood at 90%; in assay [3] (PME-1, inhibition, at 1 µM), 100%; in assay [3] (PME-1, inhibition, at 20 µM), 100%; in the assay with Anti-Target ABHD10 (setting [4]), 0%; with Anti-Target ABHD10 (setting [5]) it was 0%; in the assay with Anti-Target PREP (at 1 µM) it was 0%. Besides, the inhibition in the assay on Anti-Target PREP (at 20 µM) stood at 0%.

For the compound `CC[C@]1(c2ccccc2C)C(=O)N(C(=O)OC)N1C(=O)OC`, the inhibition with Anti-Target CES (at 1 µM) is 0%; in the assay on Anti-Target CES (at 20 µM) it was over 50%; in assay [1] (at 1 µM), 0%; in assay [1] (at 20 µM), 0%; in assay [2] (at 1 µM), 0%; in assay [2] (at 20 µM), 0%. Also, the inhibition amounted to 0% in assay [3] (PME-1, inhibition, at 1 µM); 100% in assay [3] (PME-1, inhibition, at 20 µM); 0% with Anti-Target ABHD10 (setting [4]); 0% with Anti-Target ABHD10 (setting [5]); 0% in the assay on Anti-Target PREP (at 1 µM); 0% with Anti-Target PREP (at 20 µM).

Regarding `CCOC(=O)N1C(=O)[C@@](c2ccc(Cl)cc2)(C(C)C)N1C(=O)OCC`, the inhibition (in the assay with Anti-Target CES (at 1 µM); in the assay on Anti-Target CES (at 20 µM); in assay [1] (at 1 µM); in assay [1] (at 20 µM); in assay [2] (at 1 µM); in assay [2] (at 20 µM)) was 0% each time. Besides, the inhibition was determined as 0% in assay [3] (PME-1, inhibition, at 1 µM); 0% in assay [3] (PME-1, inhibition, at 20 µM); 0% in the assay with Anti-Target ABHD10 (setting [4]); 0% in the assay on Anti-Target ABHD10 (setting [5]); 0% in the assay with Anti-Target PREP (at 1 µM); 0% with Anti-Target PREP (at 20 µM).

`COC(=O)N1C(=O)[C@@](c2ccccc2)(C(C)C)N1C(=O)OC`: the inhibition with Anti-Target CES (at 1 µM) was 0%; in the assay on Anti-Target CES (at 20 µM) it was over 50%; in assay [1] (at 1 µM), 0%; in assay [1] (at 20 µM), 0%; in assay [2] (at 1 µM), 0%; in assay [2] (at 20 µM), 0%. Besides, the inhibition was determined as 0% in assay [3] (PME-1, inhibition, at 1 µM); 100% in assay [3] (PME-1, inhibition, at 20 µM); 0% in the assay with Anti-Target ABHD10 (setting [4]); 0% in the assay on Anti-Target ABHD10 (setting [5]); 0% in the assay on Anti-Target PREP (at 1 µM); 0% in the assay with Anti-Target PREP (at 20 µM).

Turning to `CCOC(=O)N1C(=O)[C@@](CC)(c2ccccc2)N1C(=O)OCC`, the inhibition was 0% with Anti-Target CES (at 1 µM); over 50% in the assay with Anti-Target CES (at 20 µM); 0% in assay [1] (at 1 µM); 0% in assay [1] (at 20 µM); 0% in assay [2] (at 1 µM); 0% in assay [2] (at 20 µM). The inhibition is 0% in assay [3] (PME-1, inhibition, at 1 µM); 0% in assay [3] (PME-1, inhibition, at 20 µM); 0% in the assay on Anti-Target ABHD10 (setting [4]); 50% in the assay with Anti-Target ABHD10 (setting [5]); 0% in the assay on Anti-Target PREP (at 1 µM); over 50% in the assay with Anti-Target PREP (at 20 µM).

On to `COC(=O)N1C(=O)[C@](CC(C)C)(c2ccccc2)N1C(=O)OC`, for which the inhibition in the assay on Anti-Target CES (at 1 µM) is over 50%; in the assay with Anti-Target CES (at 20 µM) it was over 50%; in assay [1] (at 1 µM), 0%; in assay [1] (at 20 µM) it was over 50%; in assay [2] (at 1 µM) it was over 50%; in assay [2] (at 20 µM), over 50%. Besides, the inhibition was 100% in assay [3] (PME-1, at 0.1 µM); 100% in assay [3] (PME-1, inhibition, at 1 µM); 100% in assay [3] (PME-1, inhibition, at 20 µM); 0% in the assay with Anti-Target ABHD10 (setting [4]); 0% with Anti-Target ABHD10 (setting [5]); 0% with Anti-Target PREP (at 1 µM). Also, in the assay with Anti-Target PREP (at 20 µM), the inhibition came to 0%.

On to `COC(=O)N1C(=O)[C@@](Cc2ccccc2)(c2ccccc2)N1C(=O)OC`, for which the inhibition with Anti-Target CES (at 1 µM) is over 50%; in the assay with Anti-Target CES (at 20 µM), over 50%; in assay [1] (at 1 µM), 0%; in assay [1] (at 20 µM), 0%; in assay [2] (at 1 µM), 0%; in assay [2] (at 20 µM), 0%. Besides, the inhibition in assay [3] (PME-1, inhibition, at 1 µM) was determined as 0%; in assay [3] (PME-1, inhibition, at 20 µM), 50%; with Anti-Target ABHD10 (setting [4]), 0%; in the assay on Anti-Target ABHD10 (setting [5]), 50%; in the assay on Anti-Target PREP (at 1 µM), 0%; in the assay with Anti-Target PREP (at 20 µM), 0%.

With `CC[C@@]1(c2ccccc2C)C(=O)N(C(=O)OC)N1C(=O)OC`, the inhibition is over 50% in the assay with Anti-Target CES (at 1 µM); over 50% in the assay on Anti-Target CES (at 20 µM); 0% in assay [1] (at 1 µM); 0% in assay [1] (at 20 µM); 0% in assay [2] (at 1 µM); 0% in assay [2] (at 20 µM). Further, the inhibition in assay [3] (PME-1, inhibition, at 1 µM) stood at 50%; in assay [3] (PME-1, inhibition, at 20 µM), 100%; with Anti-Target ABHD10 (setting [4]), 0%; in the assay with Anti-Target ABHD10 (setting [5]), 0%; in the assay on Anti-Target PREP (at 1 µM) it was 0%; in the assay with Anti-Target PREP (at 20 µM), 0%.

On to `COC(=O)N1C(=O)[C@](c2ccc(OC)cc2)(C(C)C)N1C(=O)OC`, for which the inhibition with Anti-Target CES (at 1 µM) is 0%; with Anti-Target CES (at 20 µM), 0%; in assay [1] (at 1 µM) it was 0%; in assay [1] (at 20 µM), 0%; in assay [2] (at 1 µM), 0%; in assay [2] (at 20 µM), over 50%. The inhibition in assay [3] (PME-1, inhibition, at 1 µM) stood at 100%; in assay [3] (PME-1, inhibition, at 20 µM), 100%; in the assay on Anti-Target ABHD10 (setting [4]), 0%; with Anti-Target ABHD10 (setting [5]), 0%; in the assay on Anti-Target PREP (at 1 µM), 0%; in the assay on Anti-Target PREP (at 20 µM), 0%.

With `COC(=O)N1C(=O)[C@@](CC(C)C)(c2ccccc2)N1C(=O)OC`, the inhibition in the assay with Anti-Target CES (at 1 µM) was over 50%; with Anti-Target CES (at 20 µM), over 50%; in assay [1] (at 1 µM), 0%; in assay [1] (at 20 µM) it was over 50%; in assay [2] (at 1 µM) it was 0%; in assay [2] (at 20 µM) it was over 50%. The inhibition was determined as 100% in assay [3] (PME-1, inhibition, at 1 µM); 100% in assay [3] (PME-1, inhibition, at 20 µM); 0% in the assay with Anti-Target ABHD10 (setting [4]); 0% with Anti-Target ABHD10 (setting [5]); 0% in the assay with Anti-Target PREP (at 1 µM); 0% in the assay with Anti-Target PREP (at 20 µM).
